Values quoted from earlier work, collected in patent US20040253692A1, “Streptomyces sp. CJPV975652 capable of converting compactin to pravastatin and method for producing pravastatin using the same” (priority 2003, published 2004).

Legend:
[1] = daily dosage of 5-10 mg for 3 months
HMG-CoA reductase = target: T1, HMG-CoA reductase (Homo sapiens, UniProt P04035); details: compared with compactin
T1 sequence (P04035 1-888): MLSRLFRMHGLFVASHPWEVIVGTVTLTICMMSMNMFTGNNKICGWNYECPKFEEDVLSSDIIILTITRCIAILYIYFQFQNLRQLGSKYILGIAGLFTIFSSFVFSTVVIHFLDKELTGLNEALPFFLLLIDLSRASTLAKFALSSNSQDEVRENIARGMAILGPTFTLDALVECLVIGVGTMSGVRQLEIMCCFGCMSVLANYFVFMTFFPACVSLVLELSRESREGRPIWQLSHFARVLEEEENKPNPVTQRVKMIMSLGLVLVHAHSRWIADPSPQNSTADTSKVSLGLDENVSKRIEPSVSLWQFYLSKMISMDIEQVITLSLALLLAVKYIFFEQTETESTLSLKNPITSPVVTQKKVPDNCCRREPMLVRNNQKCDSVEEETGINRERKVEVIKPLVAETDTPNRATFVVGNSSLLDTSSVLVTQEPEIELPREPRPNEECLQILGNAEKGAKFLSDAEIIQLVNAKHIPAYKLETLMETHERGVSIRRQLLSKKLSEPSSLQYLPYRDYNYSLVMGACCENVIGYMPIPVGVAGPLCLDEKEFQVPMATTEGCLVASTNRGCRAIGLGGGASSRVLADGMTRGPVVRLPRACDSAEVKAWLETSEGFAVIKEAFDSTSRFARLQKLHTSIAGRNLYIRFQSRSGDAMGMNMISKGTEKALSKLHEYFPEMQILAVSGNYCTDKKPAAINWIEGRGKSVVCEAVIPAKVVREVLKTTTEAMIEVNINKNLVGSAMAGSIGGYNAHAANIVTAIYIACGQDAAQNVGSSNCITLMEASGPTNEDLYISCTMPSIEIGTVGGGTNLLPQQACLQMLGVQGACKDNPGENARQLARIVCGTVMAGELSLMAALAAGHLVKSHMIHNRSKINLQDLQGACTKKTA

SMILES: CC[C@H](C)C(=O)O[C@H]1C[C@H](O)C=C2C=C[C@H](C)[C@H](CC[C@@H](O)C[C@@H](O)CC(=O)O)[C@H]21 [pravastatin]
- reduction of LDL-cholesterol level [1]: 20-40%
- reduction of total cholesterol level [1]: 20-40%
- effectiveness as a HMG-CoA reductase inhibitor (HMG-CoA reductase): more effective than compactin
